29 molecules from paper PMC8064475, “Synthesis of Biobased Phloretin Analogues: An Access to Antioxidant and Anti-Tyrosinase Compounds for Cosmetic Applications” (Antioxidants, 2021) can be followed below.

Entries after “also recorded” stand apart in the source; their conditions may differ.

Data set [1] can be described thus: Photostability: absorbance loss after UV irradiation. In kind it is physicochemical. Particulars: 10 µM in ethanol; 1 h irradiation at 300 nm; absorbance at λmax before vs after. As to the method: (§1) UV-Vis spectra were recorded at 10 µM in ethanol on a Cary 60 UV-Vis spectrophotometer by Agilent (Wilmington, DE, USA) in a 1 cm quartz cuvette. The absorbance loss was evaluated by comparison of absorbances at the λmax before and after 1 h of irradiation into a Rayonet® RPR-200 (λ = 300 nm, P = 8.32 W.m^−2, stirring, T = 35 °C) (SNE Ultraviolet Co. Branford, CT, USA) using 14 RPR-3000A lamps.

Data set [2] can be described thus: DPPH radical scavenging assay. In kind it is biochemical. Particulars: in ethanol; DPPH 200 µM; read at 520 nm over 7.5 h; read-out: EC50 for DPPH inhibition. The method, then:
The radical scavenging activity of all compounds was tested through 2,2-diphenyl-1-picryhydrazyl (DPPH) assay which determines the EC50 values as previously described. The test consists of adding 190 µL of DPPH solution (200 µM) in ethanol to 10 µL of potential antiradical molecule solution at different concentrations (from 800 to 12.5 µM). The reaction was carried out in 96-well microplates and the disappearance of DPPH radicals was monitored at 520 nm every 5 min during 7.5 h in a multiplate Biotek (Winooski, VT, USA), Epoch 2 spectrophotometer. The EC50 values, corresponding to the concentration needed to reduce half of the initial population of DPPH radicals, were provided by the crossing point of the curves of %DPPH and %reduced DPPH. Curves dots were obtained using an average of the last six measurements for each concentration in Regressi® software version 3.99.

The target in data set [3] is mushroom tyrosinase. Nature of the data set: Mushroom tyrosinase inhibition assay. The format is biochemical. The settings on record: tyrosine substrate; ammonium formate buffer pH 6.4; 37 °C; dopachrome at 420 nm. As to the method: Tyrosinase inhibition activity was evaluated using the method used by Peyrot et al.. […] Then, 20 µL of tyrosine at 4.42 mM in ammonium formate buffer was added. […] IC50 values, corresponding to the concentration required to inhibit 50% of tyrosinase activity, were obtained using GraphPad Prism® software version 6.01.

The nature of data set [4]: UV-Vis spectra at 10 µM in ethanol. The format is physicochemical. Particulars: 1 cm quartz cuvette, band I. As to the method: as §1

Regarding `O=C(CCc1ccc(O)c(O)c1)c1ccc(O)c(O)c1` [b4, 3,3′,4,4′-tetrahydroxy-dihydrochalcone], in data set [1], the Loss of absorbance result is “Negative loss of absorbance; also recorded: higher absorbance higher after 1 h of irradiation”. Also, the EC50 – broadly, the concentration needed to bring the measured effect to its halfway point – in data set [2] is 15 µM. The IC50 (as a rule, the midpoint of a concentration-inhibition curve) in data set [3] was > 10000 µM.

Take `O=C(/C=C/c1ccc(O)c(O)c1)c1ccc(O)cc1` [a2, 3,4,4′-trihydroxy-chalcone]: the EC50 in data set [2] was 31.5 µM.

Consider `O=C(CCc1ccc(O)cc1)c1ccc(O)c(O)c1` [b3, 3′,4,4′-trihydroxy-dihydrochalcone], for which the Loss of absorbance entry in data set [1] is “Negative loss of absorbance; also recorded: higher absorbance higher after 1 h of irradiation”. The EC50 in data set [2] was 16 µM. Besides, the IC50 in data set [3] was > 10000 µM.

In the case of `COc1cc(C(=O)CCc2ccc(O)cc2)ccc1O` [b6, 4,4′-dihydroxy-3′-methoxy-dihydrochalcone], the EC50 in data set [2] is > 80 µM. For the same molecule, in data set [3], the IC50 is > 10000 µM.

`COc1cc(C(=O)CCc2ccc(O)cc2)cc(OC)c1O` [b9, 4,4′-dihydroxy-3′,5′-dimethoxy-dihydrochalcone] registered a Maximal absorbance in data set [4] of 0.19. In addition, in data set [1], the Loss of absorbance was 67.7%. Also, the EC50 in data set [2] was > 80 µM. Also, the IC50 in data set [3] is > 10000 µM.

As to `COc1ccc(O)c(C(C)(C)C)c1` [BHA, butylated hydroxyanisol, reference compound], the EC50 in data set [2] came out at 18.5 µM.

Regarding `COc1cc(C(=O)/C=C/c2cc(OC)c(O)c(OC)c2)ccc1O` [a11, 4,4′-dihydroxy-3,3′,5-trimethoxy-chalcone], the Maximal absorbance in data set [4] is 0.27. Further, in data set [2], the EC50 was 45 µM. This molecule had an IC50 in data set [3] of 7900 ± 400 µM.

`O=C(/C=C/c1ccc(O)cc1)c1ccc(O)cc1` [a1, 4,4′-dihydroxy-chalcone]: in data set [4], the Maximal absorbance is reported as 0.65. Besides, the Loss of absorbance in data set [1] is 77.6%. In addition, the EC50 in data set [2] was > 80 µM. Further, in data set [3], it took 100 ± 10 µM to reach half-maximal inhibition (IC50).

In turn, “3,4,4′-trihydroxy-3-methoxy-chalcone [a7]” registered a Maximal absorbance in data set [4] of 0.38. Moreover, the Loss of absorbance in data set [1] worked out at 46.2%. The EC50 in data set [2] came out at 31.5 µM. Further, it took 2300 ± 100 µM to reach half-maximal inhibition in data set [3] (IC50).

In turn, `COc1cc(CCC(=O)c2ccc(O)c(O)c2)ccc1O` [b8, 3′,4,4′-trihydroxy-3-methoxy-dihydrochalcone] came in with a Loss of absorbance in data set [1] of 0.1%. The EC50 in data set [2] came to 11 µM. Half-maximal inhibition in data set [3] (IC50) required 70 ± 10 µM.

Turning to `COc1cc(CCC(=O)c2ccc(O)cc2)ccc1O` [b5, 4,4′-dihydroxy-3-methoxy-dihydrochalcone], the EC50 in data set [2] is 28 µM. This molecule also yielded a concentration for half-maximal inhibition (IC50) in data set [3] of 500 ± 30 µM.

With `COc1cc(/C=C/C(=O)c2ccc(O)c(O)c2)ccc1O` [a8, 3′,4,4′-trihydroxy-3-methoxy-chalcone], in data set [2], the EC50 worked out at 9.5 µM. In addition, in data set [3], the IC50 was > 10000 µM.

The molecule `COc1cc(C(=O)/C=C/c2ccc(O)cc2)ccc1O` [a6, 4,4′-dihydroxy-3′-methoxy-chalcone] came in with a Loss of absorbance in data set [1] of 16.1%. Moreover, the EC50 in data set [2] was > 80 µM. The molecule further displayed an IC50 in data set [3] of 140 ± 10 µM.

As to `Cc1cc(C(C)(C)C)c(O)c(C(C)(C)C)c1` [BHT, butylated hydroxytoluene, reference compound], in data set [2], the EC50 amounted to 28 µM.

As for `COc1cc(/C=C/C(=O)c2ccc(O)cc2)ccc1O` [a5, 4,4′-dihydroxy-3-methoxy-chalcone], the EC50 in data set [2] was determined as 71 µM. Moreover, half-maximal inhibition in data set [3] (IC50) required 2300 ± 100 µM.

`O=C(/C=C/c1ccc(O)c(O)c1)c1ccc(O)c(O)c1` [a4, 3,3′,4,4′-tetrahydroxy-chalcone] came in with a Maximal absorbance in data set [4] of 0.47. This molecule yielded a Loss of absorbance in data set [1] of 75.7%. Moreover, the EC50 in data set [2] was 8 µM.

On to `COc1cc(C(=O)CCc2ccc(O)c(O)c2)ccc1O` [b7, 3,4,4′-trihydroxy-3-methoxy-dihydrochalcone], for which the EC50 in data set [2] came to 32 µM. Further, in data set [3], the IC50 was > 10000 µM.

On to `CCCCC(CC)COC(=O)C=Cc1ccc(OC)cc1` (stereo not drawn) [Octinoxate, octinoxate, reference compound], for which the Maximal absorbance in data set [4] is 0.24. For the same molecule, the Loss of absorbance in data set [1] was found to be 26.0%.

Regarding `COc1ccc(C(=O)CC(=O)c2ccc(C(C)(C)C)cc2)cc1` [Avobenzone, avobenzone, reference compound], the Maximal absorbance in data set [4] is listed as 0.37. In data set [1], this molecule showed a Loss of absorbance of 0.6%.

In turn, `COc1cc(CCC(=O)c2ccc(O)c(OC)c2)ccc1O` [b10, 4,4′-dihydroxy-3,3′-dimethoxydihydrochalcone] gave a Maximal absorbance in data set [4] of 0.13. The same molecule registered a Loss of absorbance in data set [1] of 20%. Further, the EC50 in data set [2] is 29.5 µM. The molecule further gave an IC50 in data set [3] of 270 ± 10 µM.

For `COc1cc(CCC(=O)c2cc(OC)c(O)c(OC)c2)cc(OC)c1O` [b12, 4,4′-dihydroxy-3,3′,5,5′-tetramethoxy-dihydrochalcone], the EC50 in data set [2] stood at 42.5 µM. In data set [3], the IC50 is > 10000 µM.

`COc1cc(/C=C/C(=O)c2ccc(O)c(OC)c2)ccc1O` [a10, 4,4′-dihydroxy-3,3′-dimethoxy-chalcone]: the EC50 in data set [2] worked out at 43.5 µM. Moreover, half-maximal inhibition in data set [3] (IC50) was put at 1800 ± 90 µM.

Take `COc1cc(/C=C/C(=O)c2cc(OC)c(O)c(OC)c2)cc(OC)c1O` [a12, 4,4′-dihydroxy-3,3′,5,5′-tetramethoxy-chalcone]: the EC50 in data set [2] was found to be 43 µM. Besides, the IC50 in data set [3] was > 10000 µM.

The molecule `O=C(CCc1ccc(O)cc1)c1c(O)cc(O)cc1O` [Phloretin, phloretin] had a Maximal absorbance in data set [4] of 0.23. The Loss of absorbance in data set [1] was 5.9%. Further, the EC50 in data set [2] was 24.5 µM. For the same molecule, in data set [3], the IC50 is > 10000 µM and the “IC50 for mushroom tyrosinase inhibition” value is listed as “did not exhibit tyrosinase inhibition activity”.

As to `O=C(/C=C/c1ccc(O)cc1)c1ccc(O)c(O)c1` [a3, 3′,4,4′-trihydroxy-chalcone], the EC50 in data set [2] came to 15.5 µM. In addition, in data set [3], the IC50 was > 10000 µM and the “IC50 for mushroom tyrosinase inhibition” value is recorded as “did not show any activity”.

With `O=C(CCc1ccc(O)c(O)c1)c1ccc(O)cc1` [b2, 3,4,4′-trihydroxy-dihydrochalcone], the Maximal absorbance in data set [4] worked out at 0.21. In data set [1], the Loss of absorbance is listed as 11.4%. Moreover, the EC50 in data set [2] came to 35 µM. Besides, in data set [3], the IC50 was > 10000 µM.

The molecule `O=C(CCc1ccc(O)cc1)c1ccc(O)cc1` [b1, 4,4′-dihydroxy-dihydrochalcone] returned a Maximal absorbance in data set [4] of 0.23. The same molecule displayed a Loss of absorbance in data set [1] of 13.8%. Further, the EC50 in data set [2] is > 80 µM. The IC50 in data set [3] was > 10000 µM.

With `COc1cc(C(=O)/C=C/c2ccc(O)cc2)cc(OC)c1O` [a9, 4,4′-dihydroxy-3′,5′-dimethoxy-chalcone], the EC50 in data set [2] was > 80 µM. 130 ± 10 µM corresponded to half-maximal inhibition in data set [3] (IC50).

On to `COc1cc(C(=O)CCc2cc(OC)c(O)c(OC)c2)ccc1O` [b11, 4,4′-dihydroxy-3,3′,5-trimethoxy-dihydrochalcone], for which the Loss of absorbance result in data set [1] is recorded as “Full loss of absorbance”. Further, the EC50 in data set [2] was found to be 33 µM. Also, the IC50 in data set [3] was > 10000 µM.
